What all share (test): relative viability (nuclei count vs DMSO), 5 days (fraction); higher = more cells survive
Compound in the assay “Dabrafenib + Alpelisib”: CC(C)(C)c1nc(-c2cccc(NS(=O)(=O)c3c(F)cccc3F)c2F)c(-c2ccnc(N)n2)s1 [Dabrafenib] + Cc1nc(NC(=O)N2CCC[C@H]2C(N)=O)sc1-c1ccnc(C(C)(C)C(F)(F)F)c1 [Alpelisib] (partner 2 µM)
The method in brief: (§1)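 After 5 days of treatment, lung cancer cells in 1536-well plates were fixed and stained in a single step (final 0.05% Triton X-100, 1% formaldehyde, 1 ug/ml Hoechst) and their nuclei counted on 4× images. Treatment had been applied by pin tool the day after seeding as one drug alone or as a fixed anchor-drug dose with five library-drug doses (not always all listed) in √10 steps. Relative viability is the nuclei count of treated wells divided by that of vehicle wells, and values are medians of duplicate plates.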

Compound in the assay “Dabrafenib + Palbociclib”: CC(C)(C)c1nc(-c2cccc(NS(=O)(=O)c3c(F)cccc3F)c2F)c(-c2ccnc(N)n2)s1 [Dabrafenib] + CC(=O)c1c(C)c2cnc(Nc3ccc(N4CCNCC4)cn3)nc2n(C2CCCC2)c1=O [Palbociclib] (partner 0.5 µM)
The procedure, abridged: as §1

Compound in the assay “VX-702 + Pemetrexed”: NC(=O)c1ccc(N(C(N)=O)c2c(F)cccc2F)nc1-c1ccc(F)cc1F [VX-702] + Nc1nc2[nH]cc(CCc3ccc(C(=O)N[C@@H](CCC(=O)O)C(=O)O)cc3)c2c(=O)[nH]1 [Pemetrexed] (partner 0.2 µM)
The procedure, abridged:
as §1

Compound in the assay “VX-702 + Pictilisib”: NC(=O)c1ccc(N(C(N)=O)c2c(F)cccc2F)nc1-c1ccc(F)cc1F [VX-702] + CS(=O)(=O)N1CCN(Cc2cc3nc(-c4cccc5[nH]ncc45)nc(N4CCOCC4)c3s2)CC1 [Pictilisib] (partner 1 µM)
The procedure, abridged: as §1

As for 201T, the relative viability with Dabrafenib + Alpelisib (first compound 0.003 µM) turned out to be 1.06; with Dabrafenib + Alpelisib (first compound 0.009487 µM), 1.08; with Dabrafenib + Alpelisib (first compound 0.03 µM), 0.932; with Dabrafenib + Alpelisib (first compound 0.09487 µM) it was 1.01; in the assay with Dabrafenib + Alpelisib (first compound 0.3 µM), 1.05; with Dabrafenib + Palbociclib (first compound 0.003 µM), 0.368. For the same cell line, the relative viability with Dabrafenib + Palbociclib (first compound 0.009487 µM) is 0.366; with Dabrafenib + Palbociclib (first compound 0.03 µM) it was 0.368; in the assay with Dabrafenib + Palbociclib (first compound 0.09487 µM), 0.318; in the assay with Dabrafenib + Palbociclib (first compound 0.3 µM) it was 0.376; with VX-702 + Pemetrexed (first compound 0.02 µM) it was 0.36; in the assay with VX-702 + Pemetrexed (first compound 0.2 µM), 0.331. The relative viability in the assay with VX-702 + Pemetrexed (first compound 0.6325 µM) came out at 0.339; with VX-702 + Pemetrexed (first compound 2 µM), 0.34; with VX-702 + Pictilisib (first compound 0.02 µM), 0.698; with VX-702 + Pictilisib (first compound 0.2 µM), 0.634; with VX-702 + Pictilisib (first compound 0.6325 µM) it was 0.676; with VX-702 + Pictilisib (first compound 2 µM), 0.668.

Turning to A549, the relative viability with Dabrafenib + Alpelisib (first compound 0.003 µM) was found to be 0.641; in the assay with Dabrafenib + Alpelisib (first compound 0.009487 µM) it was 0.949; in the assay with Dabrafenib + Alpelisib (first compound 0.03 µM), 0.83; with Dabrafenib + Alpelisib (first compound 0.09487 µM), 0.754; with Dabrafenib + Alpelisib (first compound 0.3 µM) it was 0.705; with VX-702 + Pictilisib (first compound 0.02 µM), 0.48. For the same cell line, the figures for the relative viability with VX-702 + Pictilisib (first compound 0.2 µM), with VX-702 + Pictilisib (first compound 0.6325 µM) and with VX-702 + Pictilisib (first compound 2 µM) were 0.517, 0.519 and 0.705, respectively.

Consider A-427, for which the relative viability turned out to be 1.18 with Dabrafenib + Alpelisib (first compound 0.009487 µM); 0.885 with Dabrafenib + Alpelisib (first compound 0.03 µM); 0.932 in the assay with Dabrafenib + Alpelisib (first compound 0.09487 µM); 1.1 in the assay with Dabrafenib + Alpelisib (first compound 0.3 µM); 0.485 with Dabrafenib + Palbociclib (first compound 0.003 µM); 0.537 with Dabrafenib + Palbociclib (first compound 0.009487 µM). Also, the relative viability came out at 0.509 with Dabrafenib + Palbociclib (first compound 0.03 µM); 0.459 with Dabrafenib + Palbociclib (first compound 0.09487 µM); 0.533 in the assay with Dabrafenib + Palbociclib (first compound 0.3 µM); 1.06 in the assay with VX-702 + Pemetrexed (first compound 0.02 µM); 0.993 with VX-702 + Pemetrexed (first compound 0.2 µM); 0.986 in the assay with VX-702 + Pemetrexed (first compound 0.6325 µM). Moreover, the relative viability in the assay with VX-702 + Pemetrexed (first compound 2 µM) is 1.06; with VX-702 + Pictilisib (first compound 0.02 µM) it was 0.786; with VX-702 + Pictilisib (first compound 0.2 µM), 0.706; in the assay with VX-702 + Pictilisib (first compound 0.6325 µM), 0.701; in the assay with VX-702 + Pictilisib (first compound 2 µM) it was 0.566.

Regarding ABC-1, the relative viability with Dabrafenib + Alpelisib (first compound 0.009487 µM) was determined as 0.934; in the assay with Dabrafenib + Alpelisib (first compound 0.03 µM) it was 1.14; in the assay with Dabrafenib + Alpelisib (first compound 0.09487 µM), 1.13; in the assay with Dabrafenib + Alpelisib (first compound 0.3 µM), 1.28; in the assay with Dabrafenib + Palbociclib (first compound 0.009487 µM) it was 1.01; with Dabrafenib + Palbociclib (first compound 0.03 µM) it was 0.704. Moreover, the relative viability in the assay with Dabrafenib + Palbociclib (first compound 0.09487 µM) was 0.607; in the assay with Dabrafenib + Palbociclib (first compound 0.3 µM), 1.03; with VX-702 + Pictilisib (first compound 0.02 µM), 0.829; in the assay with VX-702 + Pictilisib (first compound 0.6325 µM), 0.649; in the assay with VX-702 + Pictilisib (first compound 2 µM), 0.655.

For the cell line BEN, the relative viability was found to be 1.16 with Dabrafenib + Alpelisib (first compound 0.009487 µM); 0.974 in the assay with Dabrafenib + Alpelisib (first compound 0.09487 µM); 1.17 with Dabrafenib + Alpelisib (first compound 0.3 µM); 0.477 with Dabrafenib + Palbociclib (first compound 0.009487 µM); 0.426 with Dabrafenib + Palbociclib (first compound 0.09487 µM); 0.448 with Dabrafenib + Palbociclib (first compound 0.3 µM). For the same cell line, the relative viability with VX-702 + Pemetrexed (first compound 0.02 µM) was 0.825; with VX-702 + Pemetrexed (first compound 0.2 µM), 0.689; in the assay with VX-702 + Pemetrexed (first compound 0.6325 µM), 0.623; in the assay with VX-702 + Pemetrexed (first compound 2 µM), 0.86; with VX-702 + Pictilisib (first compound 0.02 µM), 0.558; with VX-702 + Pictilisib (first compound 0.2 µM) it was 0.526. Moreover, the relative viability was found to be 0.491 in the assay with VX-702 + Pictilisib (first compound 0.6325 µM) and 0.608 with VX-702 + Pictilisib (first compound 2 µM).

Take CAL-12T: the relative viability with Dabrafenib + Alpelisib (first compound 0.003 µM) was 1.38; with Dabrafenib + Alpelisib (first compound 0.009487 µM), 1.33; with Dabrafenib + Alpelisib (first compound 0.03 µM), 1.27; with Dabrafenib + Alpelisib (first compound 0.09487 µM), 1.14; with Dabrafenib + Alpelisib (first compound 0.3 µM), 1.45; with Dabrafenib + Palbociclib (first compound 0.003 µM), 0.461. In addition, the relative viability turned out to be 0.486 with Dabrafenib + Palbociclib (first compound 0.009487 µM); 0.599 with Dabrafenib + Palbociclib (first compound 0.03 µM); 0.388 with Dabrafenib + Palbociclib (first compound 0.09487 µM); 0.722 in the assay with Dabrafenib + Palbociclib (first compound 0.3 µM); 0.982 with VX-702 + Pemetrexed (first compound 0.02 µM); 1.22 with VX-702 + Pemetrexed (first compound 0.2 µM). The relative viability turned out to be 1.14 with VX-702 + Pemetrexed (first compound 0.6325 µM); 1.29 in the assay with VX-702 + Pemetrexed (first compound 2 µM); 0.482 with VX-702 + Pictilisib (first compound 0.02 µM); 0.185 in the assay with VX-702 + Pictilisib (first compound 0.2 µM); 0.536 with VX-702 + Pictilisib (first compound 0.6325 µM); 0.534 with VX-702 + Pictilisib (first compound 2 µM).

Turning to COR-L23, the relative viability with Dabrafenib + Alpelisib (first compound 0.003 µM) worked out at 0.715; in the assay with Dabrafenib + Alpelisib (first compound 0.009487 µM) it was 0.784; with Dabrafenib + Alpelisib (first compound 0.03 µM), 0.713; with Dabrafenib + Alpelisib (first compound 0.09487 µM), 0.678; with Dabrafenib + Alpelisib (first compound 0.3 µM), 0.85; with Dabrafenib + Palbociclib (first compound 0.003 µM) it was 0.25. The relative viability with Dabrafenib + Palbociclib (first compound 0.009487 µM) is 0.328; with Dabrafenib + Palbociclib (first compound 0.03 µM), 0.245; with Dabrafenib + Palbociclib (first compound 0.09487 µM), 0.275; with Dabrafenib + Palbociclib (first compound 0.3 µM) it was 0.207; in the assay with VX-702 + Pemetrexed (first compound 0.02 µM), 0.203; with VX-702 + Pemetrexed (first compound 0.2 µM), 0.183. Besides, the relative viability is 0.21 with VX-702 + Pemetrexed (first compound 0.6325 µM); 0.23 in the assay with VX-702 + Pemetrexed (first compound 2 µM); 0.908 with VX-702 + Pictilisib (first compound 0.02 µM); 0.855 with VX-702 + Pictilisib (first compound 0.2 µM); 0.772 with VX-702 + Pictilisib (first compound 0.6325 µM); 1.06 with VX-702 + Pictilisib (first compound 2 µM).

Turning to COR-L 105, the relative viability was 0.829 in the assay with Dabrafenib + Alpelisib (first compound 0.003 µM); 1.08 in the assay with Dabrafenib + Alpelisib (first compound 0.009487 µM); 1.16 in the assay with Dabrafenib + Alpelisib (first compound 0.03 µM); 1.13 with Dabrafenib + Alpelisib (first compound 0.09487 µM); 1.14 with Dabrafenib + Alpelisib (first compound 0.3 µM); 0.414 with Dabrafenib + Palbociclib (first compound 0.003 µM). Further, the relative viability with Dabrafenib + Palbociclib (first compound 0.009487 µM) was 0.396; with Dabrafenib + Palbociclib (first compound 0.03 µM), 0.398; with Dabrafenib + Palbociclib (first compound 0.09487 µM), 0.417; with Dabrafenib + Palbociclib (first compound 0.3 µM), 0.367; with VX-702 + Pemetrexed (first compound 0.02 µM), 1.06; in the assay with VX-702 + Pemetrexed (first compound 0.2 µM) it was 1. In addition, the relative viability with VX-702 + Pemetrexed (first compound 0.6325 µM) came out at 1.14; in the assay with VX-702 + Pemetrexed (first compound 2 µM) it was 1.25; with VX-702 + Pictilisib (first compound 0.02 µM) it was 0.449; with VX-702 + Pictilisib (first compound 0.2 µM) it was 0.386; with VX-702 + Pictilisib (first compound 0.6325 µM), 0.409; in the assay with VX-702 + Pictilisib (first compound 2 µM), 0.366.
